Assay results: US20260015358A1, “BICYCLIC DERIVATIVES, COMPOSITIONS AND USES THEREOF” (Danatlas Pharmaceuticals Co., Ltd., priority 2023, published 2026)

What was measured:
[1] = target: T1, WRN [UniPro: Q14191 (WRN_HUMAN), N500-C946] (Homo sapiens (Human), UniProt Q14191); test: WRN ATPase assay (ADP-Glo); format: biochemical; settings: WRN enzymatic activity assay
[2] = target: T1, WRN [UniPro: Q14191 (WRN_HUMAN), N500-C946]; test: WRN unwinding assay (FORKF DNA, fluorescence); format: biochemical; settings: Table 14

T1 sequence (Q14191 500-946): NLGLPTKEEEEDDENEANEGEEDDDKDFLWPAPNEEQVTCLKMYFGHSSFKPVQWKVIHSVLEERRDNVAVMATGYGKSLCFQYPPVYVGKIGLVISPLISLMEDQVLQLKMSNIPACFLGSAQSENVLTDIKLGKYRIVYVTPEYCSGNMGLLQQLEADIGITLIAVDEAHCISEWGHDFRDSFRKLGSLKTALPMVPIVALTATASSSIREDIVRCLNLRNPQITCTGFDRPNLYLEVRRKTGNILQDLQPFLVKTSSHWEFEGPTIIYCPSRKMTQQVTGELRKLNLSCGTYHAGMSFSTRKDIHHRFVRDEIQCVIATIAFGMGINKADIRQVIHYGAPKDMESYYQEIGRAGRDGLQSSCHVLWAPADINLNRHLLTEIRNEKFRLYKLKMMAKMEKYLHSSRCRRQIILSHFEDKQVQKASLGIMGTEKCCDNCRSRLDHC

Row | IC50 [1] [µM] | IC50 [2] [µM] | SMILES
1 | < 0.1 | < 0.1 | CCc1c(N2CCN(C(=O)C(=O)Nc3nccs3)CC2)c(=O)n2nc(C3=CCOCC3)nc2n1CC(=O)Nc1ccc(C(F)(F)F)cc1F [Example 227, 2-(4-(2-(3,6-Dihydro-2H-pyran-4-yl)-5-ethyl-4-(2-((2-fluoro-4-(trifluoromethyl)phenyl)amino)-2-oxoethyl)-7-oxo-4,7-dihydro-[1,2,4]triazolo[1,5-a]pyrimidin-6-yl)piperazin-1-yl)-2-oxo-N-(thiazol-2-yl)acetamide]
2 | < 0.1 | < 0.1 | CCc1c(N2CCN(C(=O)C(=O)Nc3ncco3)CC2)c(=O)n2nc(C3=CCOCC3)nc2n1CC(=O)Nc1ccc(C(F)(F)F)cc1F [Example 228, 2-(4-(2-(3,6-Dihydro-2H-pyran-4-yl)-5-ethyl-4-(2-((2-fluoro-4-(trifluoromethyl)phenyl)amino)-2-oxoethyl)-7-oxo-4,7-dihydro-[1,2,4]triazolo[1,5-a]pyrimidin-6-yl)piperazin-1-yl)-N-(oxazol-2-yl)-2-oxoacetamide]
3 | 0.1 to 1 | < 0.1 | CCc1c(N2CCN(C(=O)C(=O)Nc3ccccn3)CC2)c(=O)n2nc(C3=CCOCC3)nc2n1CC(=O)Nc1ccc(C(F)(F)F)cc1F [Example 229, 2-(4-(2-(3,6-Dihydro-2H-pyran-4-yl)-5-ethyl-4-(2-((2-fluoro-4-(trifluoromethyl)phenyl)amino)-2-oxoethyl)-7-oxo-4,7-dihydro-[1,2,4]triazolo[1,5-a]pyrimidin-6-yl)piperazin-1-yl)-2-oxo-N-(pyridin-2-yl)acetamide]
4 | < 0.1 | < 0.1 | CCc1c(N2CCN(C(=O)CNC(=O)c3ccccc3)CC2)c(=O)n2nc(N3CCOCC3)nc2n1CC(=O)Nc1ccc(C(F)(F)F)cc1Cl [Example 231, N-(2-(4-(4-(2-((2-Chloro-4-(trifluoromethyl)phenyl)amino)-2-oxoethyl)-5-ethyl-2-morpholino-7-oxo-4,7-dihydro-[1,2,4]triazolo[1,5-a]pyrimidin-6-yl)piperazin-1-yl)-2-oxoethyl)benzamide]
5 | < 0.1 | < 0.1 | CCc1c(N2CCN(C(=O)CNC(=O)c3ccccc3)CC2)c(=O)n2nc(N3Cc4ccncc4C3)nc2n1CC(=O)Nc1ccc(C(F)(F)F)cc1Cl [Example 232, N-(2-(4-(4-(2-((2-Chloro-4-(trifluoromethyl)phenyl)amino)-2-oxoethyl)-2-(1,3-dihydro-2H-pyrrolo[3,4-c]pyridin-2-yl)-5-ethyl-7-oxo-4,7-dihydro-[1,2,4]triazolo[1,5-a]pyrimidin-6-yl)piperazin-1-yl)-2-oxoethyl)benzamide]
6 | < 0.1 | < 0.1 | CCc1c(N2CCN(C(=O)CNC(=O)c3ccccc3)CC2)c(=O)n2nc(N3CC4COCC4C3)nc2n1CC(=O)Nc1ccc(C(F)(F)F)cc1Cl (stereo not shown) [Example 233, N-(2-(4-(4-(2-((2-Chloro-4-(trifluoromethyl)phenyl)amino)-2-oxoethyl)-5-ethyl-7-oxo-2-(tetrahydro-1H-furo[3,4-c]pyrrol-5 (3H)-yl)-4,7-dihydro-[1,2,4]triazolo[1,5-a]pyrimidin-6-yl)piperazin-1-yl)-2-oxoethyl)benzamide]
7 | 0.1 to 1 | < 0.1 | CCc1c(N2CCN(C(=O)CNC(=O)c3ccccc3)CC2)c(=O)n2nc(N3CCc4ncccc43)nc2n1CC(=O)Nc1ccc(C(F)(F)F)cc1Cl [Example 234, N-(2-(4-(4-(2-((2-Chloro-4-(trifluoromethyl)phenyl)amino)-2-oxoethyl)-2-(2,3-dihydro-1H-pyrrolo[3,2-b]pyridin-1-yl)-5-ethyl-7-oxo-4,7-dihydro-[1,2,4]triazolo[1,5-a]pyrimidin-6-yl)piperazin-1-yl)-2-oxoethyl)benzamide]
8 | 0.1 to 1 | 0.1 to 1 | CCc1c(N2CCN(C(=O)CNC(=O)c3ccccc3)CC2)c(=O)n2nc(N3CC4(COC4)C3)nc2n1CC(=O)Nc1ccc(C(F)(F)F)cc1Cl [Example 235, N-(2-(4-(4-(2-((2-Chloro-4-(trifluoromethyl)phenyl)amino)-2-oxoethyl)-5-ethyl-7-oxo-2-(2-oxa-6-azaspiro[3.3]heptan-6-yl)-4,7-dihydro-[1,2,4]triazolo[1,5-a]pyrimidin-6-yl)piperazin-1-yl)-2-oxoethyl)benzamide]
9 | 0.1 to 1 | 0.1 to 1 | CCc1c(N2CCN(C(=O)CNC(=O)c3ccccc3)CC2)c(=O)n2nc(-c3cnc4c(c3)CCCO4)nc2n1CC(=O)Nc1ccc(C(F)(F)F)cc1Cl [Example 236, N-(2-(4-(4-(2-((2-Chloro-4-(trifluoromethyl)phenyl)amino)-2-oxoethyl)-2-(3,4-dihydro-2H-pyrano[2,3-b]pyridin-6-yl)-5-ethyl-7-oxo-4,7-dihydro-[1,2,4]triazolo[1,5-a]pyrimidin-6-yl)piperazin-1-yl)-2-oxoethyl)benzamide]
10 | 0.1 to 1 | 0.1 to 1 | CCc1c(N2CCN(C(=O)CNC(=O)c3ccccc3)CC2)c(=O)n2nc(C(C)(C)C)nc2n1CC(=O)Nc1ccc(C(F)(F)F)cc1Cl [Example 237, N-(2-(4-(2-(Tert-butyl)-4-(2-((2-chloro-4-(trifluoromethyl)phenyl)amino)-2-oxoethyl)-5-ethyl-7-oxo-4,7-dihydro-[1,2,4]triazolo[1,5-a]pyrimidin-6-yl)piperazin-1-yl)-2-oxoethyl)benzamide]
11 | 0.1 to 1 | 0.1 to 1 | CCc1c(N2CCN(C(=O)CNC(=O)c3ccccc3)CC2)c(=O)n2nc(C3CC3)nc2n1CC(=O)Nc1ccc(C(F)(F)F)cc1Cl [Example 238, N-(2-(4-(4-(2-((2-Chloro-4-(trifluoromethyl)phenyl)amino)-2-oxoethyl)-2-cyclopropyl-5-ethyl-7-oxo-4,7-dihydro-[1,2,4]triazolo[1,5-a]pyrimidin-6-yl)piperazin-1-yl)-2-oxoethyl)benzamide]
12 | 0.1 to 1 | 0.1 to 1 | CCOc1nc2n(CC(=O)Nc3ccc(C(F)(F)F)cc3Cl)c(CC)c(N3CCN(C(=O)CNC(=O)c4ccccc4F)CC3)c(=O)n2n1 [Example 239, N-(2-(4-(4-(2-((2-Chloro-4-(trifluoromethyl)phenyl)amino)-2-oxoethyl)-2-ethoxy-5-ethyl-7-oxo-4,7-dihydro-[1,2,4]triazolo[1,5-a]pyrimidin-6-yl)piperazin-1-yl)-2-oxoethyl)-2-fluorobenzamide]
13 | 0.1 to 1 | 0.1 to 1 | CCc1c(N2CCN(C(=O)CNC(=O)c3ccccc3F)CC2)c(=O)n2nc(SC)nc2n1CC(=O)Nc1ccc(C(F)(F)F)cc1Cl [Example 241, N-(2-(4-(4-(2-((2-Chloro-4-(trifluoromethyl)phenyl)amino)-2-oxoethyl)-5-ethyl-2-(methylthio)-7-oxo-4,7-dihydro-[1,2,4]triazolo[1,5-a]pyrimidin-6-yl)piperazin-1-yl)-2-oxoethyl)-2-fluorobenzamide]
14 | < 0.1 | 0.1 to 1 | CCc1c(N2CCN(C(=O)CNC(=O)c3ccccc3F)CC2)c(=O)n2nc(N3CC(F)(F)C3)nc2n1CC(=O)Nc1ccc(C(F)(F)F)cc1Cl [Example 244, N-(2-(4-(4-(2-((2-Chloro-4-(trifluoromethyl)phenyl)amino)-2-oxoethyl)-2-(3,3-difluoroazetidin-1-yl)-5-ethyl-7-oxo-4,7-dihydro-[1,2,4]triazolo[1,5-a]pyrimidin-6-yl)piperazin-1-yl)-2-oxoethyl)-2-fluorobenzamide]
15 | 0.1 to 1 | < 0.1 | CCc1c(N2CCN(C(=O)CNC(=O)c3ccccc3F)CC2)c(=O)n2nc(N3Cc4ccncc4C3)nc2n1CC(=O)Nc1ccc(C(F)(F)F)cc1Cl [Example 246, N-(2-(4-(4-(2-((2-Chloro-4-(trifluoromethyl)phenyl)amino)-2-oxoethyl)-2-(1,3-dihydro-2H-pyrrolo[3,4-c]pyridin-2-yl)-5-ethyl-7-oxo-4,7-dihydro-[1,2,4]triazolo[1,5-a]pyrimidin-6-yl)piperazin-1-yl)-2-oxoethyl)-2-fluorobenzamide]
16 | < 0.1 | < 0.1 | CCc1c(N2CCN(C(=O)CNC(=O)c3nccs3)CC2)c(=O)n2nc(N3CCOCC3)nc2n1CC(=O)Nc1ccc(C(F)(F)F)cc1Cl [Example 248, N-(2-(4-(4-(2-((2-Chloro-4-(trifluoromethyl)phenyl)amino)-2-oxoethyl)-5-ethyl-2-morpholino-7-oxo-4,7-dihydro-[1,2,4]triazolo[1,5-a]pyrimidin-6-yl)piperazin-1-yl)-2-oxoethyl)thiazole-2-carboxamide]
17 | < 0.1 | < 0.1 | CCc1c(N2CCN(C(=O)CNC(=O)c3ncco3)CC2)c(=O)n2nc(N3CCOCC3)nc2n1CC(=O)Nc1ccc(C(F)(F)F)cc1Cl [Example 249, N-(2-(4-(4-(2-((2-Chloro-4-(trifluoromethyl)phenyl)amino)-2-oxoethyl)-5-ethyl-2-morpholino-7-oxo-4,7-dihydro-[1,2,4]triazolo[1,5-a]pyrimidin-6-yl)piperazin-1-yl)-2-oxoethyl)oxazole-2-carboxamide]
18 | < 0.1 | < 0.1 | CCc1c(N2CCN(C(=O)CNC(=O)c3cc(NC)ccc3F)CC2)c(=O)n2nc(N3CCOCC3)nc2n1CC(=O)Nc1ccc(C(F)(F)F)cc1Cl [Example 250]
19 | < 0.1 | < 0.1 | CCc1c(N2CCN(C(=O)CNC(=O)c3ccc(F)c(NC)c3)CC2)c(=O)n2nc(N3CCOCC3)nc2n1CC(=O)Nc1ccc(C(F)(F)F)cc1Cl [Example 251, N-(2-(4-(4-(2-((2-Chloro-4-(trifluoromethyl)phenyl)amino)-2-oxoethyl)-5-ethyl-2-morpholino-7-oxo-4,7-dihydro-[1,2,4]triazolo[1,5-a]pyrimidin-6-yl)piperazin-1-yl)-2-oxoethyl)-4-fluoro-3-(methylamino)benzamide]
20 | < 0.1 | < 0.1 | CCc1c(N2CCN(C(=O)CNC(=O)c3cccc(O)c3F)CC2)c(=O)n2nc(N3CCOCC3)nc2n1CC(=O)Nc1ccc(C(F)(F)F)cc1F [Example 252, N-(2-(4-(5-Ethyl-4-(2-((2-fluoro-4-(trifluoromethyl)phenyl)amino)-2-oxoethyl)-2-morpholino-7-oxo-4,7-dihydro-[1,2,4]triazolo[1,5-a]pyrimidin-6-yl)piperazin-1-yl)-2-oxoethyl)-2-fluoro-3-hydroxybenzamide]
